Results as given in ChEMBL document CHEMBL2413072, “Synthesis and in vitro anticancer studies of novel C-2 arylidene congeners of lantadenes” (2013).

Tests used:
Type in all cases: functional
M14 [1] = experiment: Growth inhibition of human M14 cells assessed as cell growth at 10^-7 M by sulforhodamine B assay; details: read-out: Activity
HCT-116 [2] = experiment: Growth inhibition of human HCT116 cells assessed as cell growth at 10^-7 M by sulforhodamine B assay; details: read-out: Activity
IGROV-1 = experiment: Growth inhibition of human IGROV1 cells assessed as cell growth at 10^-6 M by sulforhodamine B assay; details: read-out: Activity
SK-MEL-28 [3] = experiment: Growth inhibition of human SK-MEL-28 cells assessed as cell growth at 10 uM by sulforhodamine B assay; details: read-out: Activity
A549 [4] = experiment: Growth inhibition of human A549/ATCC cells assessed as cell growth at 10 uM by sulforhodamine B assay; details: read-out: Activity
RPMI-8226 [5] = experiment: Growth inhibition of human RPMI8226 cells assessed as cell growth at 10^-8 M by sulforhodamine B assay; details: read-out: Activity
SF-268 = experiment: Growth inhibition of human SF268 cells assessed as growth inhibition at 10 uM by sulforhodamine B assay; details: read-out: GI
A549 [6] = experiment: Growth inhibition of human A549/ATCC cells assessed as cell growth at 10^-8 M by sulforhodamine B assay; details: read-out: Activity
K562 [7] = experiment: Growth inhibition of human K562 cells assessed as cell growth at 10 uM by sulforhodamine B assay; details: read-out: Activity
COLO 205 = experiment: Growth inhibition of human COLO205 cells assessed as growth inhibition at 10 uM by sulforhodamine B assay; details: read-out: GI
ACHN = experiment: Growth inhibition of human ACHN cells assessed as cell growth at 10^-6 M by sulforhodamine B assay; details: read-out: Activity
NCI-H522 [8] = experiment: Growth inhibition of human NCI-H522 cells assessed as cell growth at 10 uM by sulforhodamine B assay; details: read-out: Activity
SNB-19 = experiment: Growth inhibition of human SNB19 cells assessed as growth inhibition at 10 uM by sulforhodamine B assay; details: read-out: GI
SF-295 = experiment: Growth inhibition of human SF295 cells assessed as cell growth at 10^-8 M by sulforhodamine B assay; details: read-out: Activity
NCI-H522 [9] = experiment: Growth inhibition of human NCI-H522 cells assessed as growth inhibition at 10 uM by sulforhodamine B assay; details: read-out: GI
SK-MEL-28 [10] = experiment: Growth inhibition of human SK-MEL-28 cells assessed as cell growth at 10^-7 M by sulforhodamine B assay; details: read-out: Activity
RPMI-8226 [11] = experiment: Growth inhibition of human RPMI8226 cells assessed as cell growth at 10^-4 M by sulforhodamine B assay; details: read-out: Activity
[12] = Growth inhibition of human Hs 578T cells assessed as cell growth at 10^-8 M by sulforhodamine B assay; details: read-out: Activity
BT-549 = experiment: Growth inhibition of human BT549 cells assessed as cell growth at 10 uM by sulforhodamine B assay; details: read-out: Activity
HL-60(TB) [13] = experiment: Growth inhibition of human HL-60(TB) cells assessed as growth inhibition at 10 uM by sulforhodamine B assay; details: read-out: GI
SF-539 = experiment: Growth inhibition of human SF539 cells assessed as cell growth at 10^-4 M by sulforhodamine B assay; details: read-out: Activity
MDA-MB-231 = experiment: Growth inhibition of human MDA-MB-231 cells assessed as cell growth at 10 uM by sulforhodamine B assay; details: read-out: Activity
M14 [14] = experiment: Growth inhibition of human M14 cells assessed as growth inhibition at 10 uM by sulforhodamine B assay; details: read-out: GI
HL-60(TB) [15] = experiment: Growth inhibition of human HL-60(TB) cells assessed as cell growth at 10^-4 M by sulforhodamine B assay; details: read-out: Activity
NCI-H226 = experiment: Growth inhibition of human NCI-H226 cells assessed as cell growth at 10 uM by sulforhodamine B assay; details: read-out: Activity
HCT-116 [16] = experiment: Growth inhibition of human HCT116 cells assessed as cell growth at 10^-4 M by sulforhodamine B assay; details: read-out: Activity
786-0 = experiment: Growth inhibition of human 786-0 cells assessed as cell growth at 10^-6 M by sulforhodamine B assay; details: read-out: Activity
[17] = Growth inhibition of human NCI-ADR-RES cells assessed as cell growth at 10^-8 M by sulforhodamine B assay; details: read-out: Activity
SN12C [18] = experiment: Growth inhibition of human SN12C cells assessed as growth inhibition at 10 uM by sulforhodamine B assay; details: read-out: GI
SW-620 = experiment: Growth inhibition of human SW620 cells assessed as cell growth at 10 uM by sulforhodamine B assay; details: read-out: Activity
RPMI-8226 [19] = experiment: Growth inhibition of human RPMI8226 cells assessed as cell growth at 10 uM by sulforhodamine B assay; details: read-out: Activity
SN12C [20] = experiment: Growth inhibition of human SN12C cells assessed as cell growth at 10 uM by sulforhodamine B assay; details: read-out: Activity
Malme-3M = experiment: Growth inhibition of human MALME-3M cells by sulforhodamine B assay
NCI-H23 [21] = experiment: Growth inhibition of human NCI-H23 cells assessed as cell growth at 10^-4 M by sulforhodamine B assay; details: read-out: Activity
RXF 393 = experiment: Growth inhibition of human RXF393 cells assessed as cell growth at 10 uM by sulforhodamine B assay; details: read-out: Activity
KM12 = experiment: Growth inhibition of human KM12 cells assessed as growth inhibition at 10 uM by sulforhodamine B assay; details: read-out: GI
MDA-MB-435 = experiment: Growth inhibition of human MDA-MB-435 cells assessed as cell growth at 10^-6 M by sulforhodamine B assay; details: read-out: Activity
NCI-H322M = experiment: Growth inhibition of human NCI-H322M cells assessed as growth inhibition at 10 uM by sulforhodamine B assay; details: read-out: GI
MDA-MB-468 = experiment: Growth inhibition of human MDA-MB-468 cells assessed as cell growth at 10^-7 M by sulforhodamine B assay; details: read-out: Activity
NCI-H23 [22] = experiment: Growth inhibition of human NCI-H23 cells assessed as cell growth at 10^-7 M by sulforhodamine B assay; details: read-out: Activity
[23] = Growth inhibition of human EKVX cells assessed as growth inhibition at 10 uM by sulforhodamine B assay; details: read-out: GI
K562 [24] = experiment: Growth inhibition of human K562 cells assessed as growth inhibition at 10 uM by sulforhodamine B assay; details: read-out: GI
SK-MEL-2 = experiment: Growth inhibition of human SK-MEL-2 cells assessed as cell growth at 10^-6 M by sulforhodamine B assay; details: read-out: Activity
HCT-15 = experiment: Growth inhibition of human HCT15 cells assessed as cell growth at 10^-8 M by sulforhodamine B assay; details: read-out: Activity
LOX IMVI = experiment: Growth inhibition of human LOXIMVI cells by sulforhodamine B assay
SNB-75 = experiment: Growth inhibition of human SNB75 cells assessed as cell growth at 10^-8 M by sulforhodamine B assay; details: read-out: Activity
[25] = read-out: LC50 (the source's name)
[26] = read-out: pLC50 (the source's name) (converted)

CC(C)=CC(=O)O[C@@H]1CC(C)(C)C[C@H]2C3=CC[C@@H]4[C@@]5(C)CC[C@H](O)C(C)(C)[C@@H]5CC[C@@]4(C)[C@]3(C)CC[C@@]12C(=O)O [Reduced Lantadene B]
growth at 0.1 µM (M14 [1]): 90%
growth at 0.1 µM (HCT-116 [2]): 94%
growth at 1 µM (IGROV-1): 101%
growth at 10 µM (SK-MEL-28 [3]): 88.3%
growth at 10 µM (A549 [4]): 23.5%
growth at 0.01 µM (RPMI-8226 [5]): 100%
inhibition of growth at 10 µM (SF-268): < 10%
growth at 0.01 µM (A549 [6]): 91%
growth at 10 µM (K562 [7]): 45.2%
inhibition of growth at 10 µM (COLO 205): 31.9%
growth at 1 µM (ACHN): 64%
growth at 10 µM (NCI-H522 [8]): 67.7%
inhibition of growth at 10 µM (SNB-19): 14.4%
growth at 0.01 µM (SF-295): 95%
inhibition of growth at 10 µM (NCI-H522 [9]): 32.4%
growth at 0.1 µM (SK-MEL-28 [10]): 100%
growth at 100 µM (RPMI-8226 [11]): -19%
growth at 0.01 µM [12]: 96%
growth at 10 µM (BT-549): 78.1%
inhibition of growth at 10 µM (HL-60(TB) [13]): 86%
growth at 100 µM (SF-539): -38%
growth at 10 µM (MDA-MB-231): 81.3%
inhibition of growth at 10 µM (M14 [14]): < 10%
growth at 100 µM (HL-60(TB) [15]): -52%
growth at 10 µM (NCI-H226): 78.7%
growth at 100 µM (HCT-116 [16]): -80%
growth at 1 µM (786-0): 93%
growth at 0.01 µM [17]: 107%
inhibition of growth at 10 µM (SN12C [18]): 49.1%
growth at 10 µM (SW-620): 66.9%
growth at 10 µM (RPMI-8226 [19]): 23.7%
growth at 10 µM (SN12C [20]): 50.9%
GI50 (Malme-3M; read-out: GI50): 13.7 µM
CC50 (Malme-3M; [25]): > 100 µM
TGI (Malme-3M; read-out: TGI): 38.6 µM
GI50 (Malme-3M; read-out: pGI50 (converted)): 13.8 µM
CC50 (Malme-3M; [26]): > 100 µM
TGI (Malme-3M; read-out: pTGI (converted)): 38.9 µM
growth at 100 µM (NCI-H23 [21]): -58%
growth at 10 µM (RXF 393): 85.2%
inhibition of growth at 10 µM (KM12): 65.7%
growth at 1 µM (MDA-MB-435): 95%
inhibition of growth at 10 µM (NCI-H322M): 40.3%
growth at 0.1 µM (MDA-MB-468): 98%
growth at 0.1 µM (NCI-H23 [22]): 92%
inhibition of growth at 10 µM [23]: 52.3%
inhibition of growth at 10 µM (K562 [24]): 54.8%
growth at 1 µM (SK-MEL-2): 107%
growth at 0.01 µM (HCT-15): 93%
GI50 (LOX IMVI; read-out: GI50): 9.09 µM
CC50 (LOX IMVI; [25]): > 100 µM
TGI (LOX IMVI; read-out: TGI): 38.2 µM
GI50 (LOX IMVI; read-out: pGI50 (converted)): 9.12 µM
CC50 (LOX IMVI; [26]): > 100 µM
TGI (LOX IMVI; read-out: pTGI (converted)): 38 µM
growth at 0.01 µM (SNB-75): 85%
